Measurements published in patent US20260274837A1, “PESTICIDALLY ACTIVE HETEROCYCLIC DERIVATIVES WITH SULFUR CONTAINING SUBSTITUENTS” (SYNGENTA CROP PROTECTION AG, priority 2023, published 2026).

How the values were obtained:
Format in all cases: in vivo
Chilo suppressalis = assay: Activity against Chilo suppressalis (striped rice stemborer), artificial diet in 24-well plates; settings: 144 h, application rate 200 ppm, L2 larvae, assessed 6 days after infestation vs untreated, read-out: control (at least one of mortality, anti-feedant effect, growth inhibition)
Protocol: Example B1: Activity Against Chilo suppressalis (Striped Rice Stemborer)
24-well microtiter plates with artificial diet were treated with aqueous test solutions prepared from 10′000 ppm DMSO stock solutions by pipetting. After drying, the plates were infested with L2 larvae (6-8 per well). The samples were assessed for mortality, anti-feeding effect, and growth inhibition in comparison to untreated samples 6 days after infestation. Control of Chilo suppressalis by a test sample is given when at least one of the categories mortality, anti-feedant effect, and growth inhibition is higher than the untreated sample.

Diabrotica balteata = assay: Activity against Diabrotica balteata (corn root worm), sprayed maize sprouts on agar; settings: 96 h, application rate 200 ppm, L2 larvae, assessed 4 days after infestation vs untreated, read-out: effect in at least one of the two categories (mortality or growth inhibition)
Protocol: Example B2: Activity Against Diabrotica Balteata (Corn Root Worm)
Maize sprouts placed onto an agar layer in 24-well microtiter plates were treated with aqueous test solutions prepared from 10′000 ppm DMSO stock solutions by spraying. After drying, the plates were infested with L2 larvae (6 to 10 per well). The samples were assessed for mortality and growth inhibition in comparison to untreated samples 4 days after infestation.

Plutella xylostella = assay: Activity against Plutella xylostella (diamond back moth), artificial diet in 24-well plates; settings: 192 h, application rate 200 ppm, eggs, assessed 8 days after infestation vs untreated, read-out: effect in at least one of the two categories (mortality or growth inhibition)
Protocol: Example B3: Activity Against Plutella xylostella (Diamond Back Moth)
24-well microtiter plates with artificial diet were treated with aqueous test solutions prepared from 10′000 ppm DMSO stock solutions by pipetting. After drying, Plutella eggs were pipetted through a plastic stencil onto a gel blotting paper and the plate was closed with it. The samples were assessed for mortality and growth inhibition in comparison to untreated samples 8 days after infestation.

Spodoptera littoralis = assay: Activity against Spodoptera littoralis (Egyptian cotton leaf worm), sprayed cotton leaf discs; settings: foliar, 72 h, application rate 200 ppm, L1 larvae, assessed 3 days after infestation vs untreated, read-out: control (at least one of mortality, anti-feedant effect, growth inhibition)
Protocol: Example B4: Activity Against Spodoptera littoralis (Egyptian Cotton Leaf Worm)
Cotton leaf discs were placed onto agar in 24-well microtiter plates and sprayed with aqueous test solutions prepared from 10′000 ppm DMSO stock solutions. After drying the leaf discs were infested with five L1 larvae. The samples were assessed for mortality, anti-feeding effect, and growth inhibition in comparison to untreated samples 3 days after infestation. Control of Spodoptera littoralis by a test sample is given when at least one of the categories mortality, anti-feedant effect, and growth inhibition is higher than the untreated sample.

CCS(=O)(=O)c1c(-c2coc3cc(C(F)(F)F)ccc3c2=O)nc2cc(C(F)(F)F)ccn12 [P.1, 3-[3-ethylsulfonyl-7-(trifluoromethyl)imidazo[1,2-a]pyridin-2-yl]-7-(trifluoromethyl)chromen-4-one]
≥ 80%: percent control (mortality, anti-feedant effect or growth inhibition) at 200 ppm (Chilo suppressalis) | percent effect (mortality or growth inhibition) at 200 ppm (Diabrotica balteata) | percent effect (mortality or growth inhibition) at 200 ppm (Plutella xylostella) | percent control (mortality, anti-feedant effect or growth inhibition) at 200 ppm (Spodoptera littoralis)
